Reference: US20170157012A1, “A Use of Isosorbide Monooleate” (BASF SE, priority 2014, published 2017)

How the values were obtained:
[1] = In-vitro deposition on skin substitute after rinse-off (GC of extract); settings: for In-vitro deposition of Isosorbide monooleate on the skin substitute per area: after rinse with water
Method: (§1) For measuring the deposition of isosorbide monooleate on a substrate a formulation containing isosorbide monooleate was applied to this substrate. Then, the treated area was rinsed with a defined amount of water and extracted with an organic solvent in order to determine the amount of isosorbide monooleate that remained on the surface after the rinse cycle. The extract was analyzed by gas chromatography (GC) and the amount of isosorbide monooleate deposited on the surface was calculated. The measurements were carried out as described in the experimental section of WO 2013/007473.
(§2) As substrate the human skin (forearm) of probands (in-vivo deposition) as well as a skin substitute (collagen layer) (in-vitro deposition) was used. The rinse-cycle (dilution with water) imitated the process of having a shower.
(§3) The following formulations were used for the deposition measurements (in-vitro as well as in-vivo).

[2] = In-vivo deposition on human skin after rinse-off (GC of extract)
Method: as §1, §2, §3

## isosorbide monooleate
[1]; 0.5 % by weight isosorbide monooleate in the formulation
  In-vitro deposition of Isosorbide monooleate on the skin substitute per area: 3.7 μg/cm^2
[1]; 1 % by weight isosorbide monooleate in the formulation
  In-vitro deposition of Isosorbide monooleate on the skin substitute per area: 7.3 μg/cm^2
[1]; 1.5 % by weight isosorbide monooleate in the formulation
  In-vitro deposition of Isosorbide monooleate on the skin substitute per area: 8.6 μg/cm^2
[1]; 2 % by weight isosorbide monooleate in the formulation
  In-vitro deposition of Isosorbide monooleate on the skin substitute per area: 15.8 μg/cm^2
[1]; formulations with 0.5 to 2 % by weight isosorbide monooleate
  Concentration dependency of deposition on the skin/skin substitute: The higher the amount of isosorbide monooleate in the formulation the higher the deposition rate
[2]; 1 % by weight isosorbide monooleate in the formulation, human forearm skin, after rinse-off
  In-vivo Deposition of isosorbide monooleate on the skin per area: 0.7 μg/cm^2
[2]; formulation with 1% by weight isosorbide monooleate
  Remaining on the skin after rinse-off (in words): remained in small amounts on the skin after rinse-off
